Laboratory results from patent US9663525B2, “Pyrazolopyrimidinyl inhibitors of ubiquitin-activating enzyme” (Millennium Pharmaceuticals, Inc., priority 2012, dated 2017).
pIC50: −log10 of the molar value.

The molecules below were run against recombinant human UAE (Homo sapiens (Human), UniProt P22314) (assay: Ubiquitin Activating Enzyme (UAE) HTRF assay, human UAE). Settings: not given.
Sequence of recombinant human UAE (P22314 whole entry): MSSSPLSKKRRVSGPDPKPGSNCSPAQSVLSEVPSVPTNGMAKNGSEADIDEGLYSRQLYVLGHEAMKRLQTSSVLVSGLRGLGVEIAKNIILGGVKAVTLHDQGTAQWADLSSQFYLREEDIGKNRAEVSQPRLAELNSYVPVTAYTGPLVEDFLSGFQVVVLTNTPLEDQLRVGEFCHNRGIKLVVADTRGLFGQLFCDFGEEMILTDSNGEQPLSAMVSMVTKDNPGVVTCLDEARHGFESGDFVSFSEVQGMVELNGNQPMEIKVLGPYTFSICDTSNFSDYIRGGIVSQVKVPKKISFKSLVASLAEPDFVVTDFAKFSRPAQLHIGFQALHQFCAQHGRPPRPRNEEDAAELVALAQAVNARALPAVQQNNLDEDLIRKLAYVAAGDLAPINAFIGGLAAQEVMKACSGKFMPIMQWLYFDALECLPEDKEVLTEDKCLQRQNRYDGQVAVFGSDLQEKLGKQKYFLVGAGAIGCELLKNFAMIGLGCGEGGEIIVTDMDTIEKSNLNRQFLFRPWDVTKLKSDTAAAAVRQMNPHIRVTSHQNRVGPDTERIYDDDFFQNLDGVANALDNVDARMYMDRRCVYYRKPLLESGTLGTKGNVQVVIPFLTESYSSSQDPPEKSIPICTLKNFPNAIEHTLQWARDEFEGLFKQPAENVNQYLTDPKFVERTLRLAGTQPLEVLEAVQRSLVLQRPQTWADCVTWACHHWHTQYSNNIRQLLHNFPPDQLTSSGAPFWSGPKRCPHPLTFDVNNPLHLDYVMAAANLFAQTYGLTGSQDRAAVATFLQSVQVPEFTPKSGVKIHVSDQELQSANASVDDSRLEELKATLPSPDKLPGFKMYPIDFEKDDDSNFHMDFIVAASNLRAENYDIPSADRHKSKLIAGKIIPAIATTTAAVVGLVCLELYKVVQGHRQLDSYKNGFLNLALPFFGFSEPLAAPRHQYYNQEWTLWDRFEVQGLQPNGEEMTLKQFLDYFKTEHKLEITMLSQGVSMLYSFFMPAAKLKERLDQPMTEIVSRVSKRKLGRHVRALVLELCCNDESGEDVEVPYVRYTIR
`NS(=O)(=O)OC[C@H]1C[C@@H](Nc2ccnc3cc(-c4ccc5ccccc5c4)nn23)[C@H](O)[C@@H]1O` (racemic) [Compound I-016, (rac)-((1R,2R,3S,4R)-2,3-dihydroxy-4-(2-(naphthalen-2-yl)pyrazolo[1,5-a]pyrimidin-7-ylamino)cyclopentyl)methyl rel-sulfamate] showed a pIC50 greater than 8.00. Work on `NS(=O)(=O)OC[C@H]1C[C@@H](Nc2ccnc3cc(-c4c[nH]c5ccccc45)nn23)[C@H](O)[C@@H]1O` (racemic) [Compound I-032, (rac)-[(1R,2R,3S,4R)-2,3-dihydroxy-4-{[2-(1H-indol-3-yl)pyrazolo[1,5-a]pyrimidin-7-yl]amino}cyclopentyl]methyl rel-sulfamate] yielded a pIC50 greater than 8.00. Molecule `Cc1cc(N[C@@H]2C[C@H](COS(N)(=O)=O)[C@@H](O)[C@H]2O)n2nc(-c3ccccc3)cc2n1` (relative stereo) [Compound I-004, (rac)-{(1R,2R,3S,4R)-2,3-dihydroxy-4-[(5-methyl-2-phenylpyrazolo[1,5-a]pyrimidin-7-yl)amino]cyclopentyl}methyl rel-sulfamate] has a pIC50 of 6.00 to 7.00. With `CCOC(C)(C)c1cccc(-c2cc3nccc(N[C@@H]4C[C@H](COS(N)(=O)=O)[C@@H](O)[C@H]4O)n3n2)c1` (racemic) [Compound I-084, (rac)-((1R,2R,3S,4R)-4-(2-(3-(2-ethoxypropan-2-yl)phenyl)pyrazolo[1,5-a]pyrimidin-7-ylamino)-2,3-dihydroxycyclopentyl)methyl rel-sulfamate] the pIC50 was greater than 8.00. `NS(=O)(=O)OC[C@H]1C[C@@H](Nc2ccnc3cc(-c4cccc(N5CCOCC5)c4)nn23)[C@H](O)[C@@H]1O` (racemic) [Compound I-078, (rac)-((1R,2R,3S,4R)-2,3-dihydroxy-4-(2-(3-morpholinophenyl)pyrazolo-[1,5-a]pyrimidin-7-ylamino)cyclopentyl)methyl rel-sulfamate] showed a pIC50 greater than 8.00. For `NS(=O)(=O)OC[C@H]1C[C@@H](Nc2ccnc3cc(-c4ccc5[nH]ccc5c4)nn23)[C@H](O)[C@@H]1O` (racemic) [Compound I-074, (rac)-[(1R,2R,3S,4R)-2,3-dihydroxy-4-{[2-(1H-indol-5-yl)pyrazolo[1,5-a]pyrimidin-7-yl]amino}cyclopentyl]methyl rel-sulfamate], the pIC50 was 7.00 to 8.00. `NS(=O)(=O)OC[C@H]1C[C@@H](Nc2ccnc3cc(-c4cccc(Oc5ccccc5)c4)nn23)[C@H](O)[C@@H]1O` (racemic) [Compound I-051, (rac)-((1R,2R,3S,4R)-2,3-Dihydroxy-4-((2-(3-phenoxyphenyl)pyrazolo[1,5-a]pyrimidin-7-yl)amino)cyclopentyl)methyl rel-sulfamate] was tested, and the pIC50 was 7.00 to 8.00. `NS(=O)(=O)OC[C@H]1C[C@@H](Nc2ccnc3cc(-c4ccc(SC(F)(F)F)cc4)nn23)[C@H](O)[C@@H]1O` (racemic) [Compound I-080, (rac)-((1R,2R,3S,4R)-2,3-dihydroxy-4-(2-(4-(trifluoromethylthio)phenyl)pyrazolo[1,5-a]pyrimidin-7-ylamino)cyclopentyl)methyl rel-sulfamate] gave a pIC50 of 7.00 to 8.00. Work on `C#Cc1cccc(-c2cc3nccc(N[C@@H]4C[C@H](COS(N)(=O)=O)[C@@H](O)[C@H]4O)n3n2)c1` (racemic) [Compound I-083, (rac)-[(1R,2R,3S,4R)-4-{[2-(3-ethynylphenyl)pyrazolo[1,5-a]pyrimidin-7-yl]amino}-2,3-dihydroxycyclopentyl]methyl rel-sulfamate] yielded a pIC50 greater than 8.00. With `NS(=O)(=O)OC[C@H]1C[C@@H](Nc2ccnc3cc(-c4cccc(Br)c4)nn23)[C@H](O)[C@@H]1O` (racemic) [Compound I-028, (rac)-((1R,2R,3S,4R)-4-((2-(3-Bromophenyl)pyrazolo[1,5-a]pyrimidin-7-yl)amino)-2,3-dihydroxycyclopentyl)methyl rel-sulfamate] the pIC50 was greater than 8.00. Work on `NS(=O)(=O)OC[C@H]1C[C@@H](Nc2ccnc3cc(-c4coc5ccc(Cl)cc45)nn23)[C@H](O)[C@@H]1O` (racemic) [Compound I-092, (rac)-((1R,2R,3S,4R)-4-(2-(5-chlorobenzofuran-3-yl)pyrazolo[1,5-a]pyrimidin-7-ylamino)-2,3-dihydroxycyclopentyl)methyl rel-sulfamate] yielded a pIC50 greater than 8.00. `NS(=O)(=O)OC[C@H]1C[C@@H](Nc2ccnc3cc(-c4cc5ccccc5o4)nn23)[C@H](O)[C@@H]1O` (racemic) [Compound I-086, (rac)-((1R,2R,3S,4R)-4-(2-(benzofuran-2-yl)pyrazolo[1,5-a]pyrimidin-7-ylamino)-2,3-dihydroxycyclopentyl)methyl rel-sulfamate] was tested, and the pIC50 was greater than 8.00. In the case of `NS(=O)(=O)OC[C@H]1C[C@@H](Nc2ccnc3cc(-c4cccc5[nH]ccc45)nn23)[C@H](O)[C@@H]1O` (racemic) [Compound I-075, (rac)-((1R,2R,3S,4R)-4-(2-(1H-indol-4-yl)pyrazolo[1,5-a]pyrimidin-7-ylamino)-2,3-dihydroxycyclopentyl)methyl rel-sulfamate], the pIC50 was greater than 8.00. In the case of `NS(=O)(=O)OC[C@H]1C[C@@H](Nc2cc(Cl)nc3cc(-c4ccccc4)nn23)[C@H](O)[C@@H]1O` (relative stereo) [Compound I-006, (rac)-{(1R,2R,3S,4R)-4-[(5-chloro-2-phenylpyrazolo[1,5-a]pyrimidin-7-yl)amino]-2,3-dihydroxycyclopentyl}methyl rel-sulfamate], the pIC50 was 6.00 to 7.00. For `NS(=O)(=O)OC[C@H]1C[C@@H](Nc2ccnc3cc(-c4ccc(C(F)(F)F)c5cccnc45)nn23)[C@H](O)[C@@H]1O` (racemic) [Compound I-033, (rac)-((1R,2R,3S,4R)-2,3-dihydroxy-4-(2-(5-(trifluoromethyl)quinolin-8-yl)pyrazolo[1,5-a]pyrimidin-7-ylamino)cyclopentyl)methyl rel-sulfamate], the pIC50 was greater than 8.00. `NS(=O)(=O)OC[C@H]1C[C@@H](Nc2ccnc3cc(-c4ccc5c(c4)C(=O)c4ccccc4-5)nn23)[C@H](O)[C@@H]1O` (racemic) [Compound I-085, (rac)-((1R,2R,3S,4R)-2,3-dihydroxy-4-(2-(9-oxo-9H-fluoren-2-yl)pyrazolo[1,5-a]pyrimidin-7-ylamino)cyclopentyl)methyl rel-sulfamate] gave a pIC50 greater than 8.00. `CCc1ccc2sc(-c3cc4nccc(N[C@@H]5C[C@H](COS(N)(=O)=O)[C@@H](O)[C@H]5O)n4n3)cc2c1` (racemic) [Compound I-095, (rac)-((1R,2R,3S,4R)-4-(2-(5-ethylbenzo[b]thiophen-2-yl)pyrazolo[1,5-a]pyrimidin-7-ylamino)-2,3-dihydroxycyclopentyl)methyl rel-sulfamate] was tested, and the pIC50 was 7.00 to 8.00. `CC(C)(C)c1cccc(-c2cc3nccc(N[C@@H]4C[C@H](COS(N)(=O)=O)[C@@H](O)[C@H]4O)n3n2)n1` (racemic) [Compound I-052, (rac)-((1R,2R,3S,4R)-4-(2-(6-tert-butylpyridin-2-yl)pyrazolo[1,5-a]pyrimidin-7-ylamino)-2,3-dihydroxycyclopentyl)methyl rel-sulfamate] was tested, and the pIC50 was greater than 8.00. Work on `NS(=O)(=O)OC[C@H]1C[C@@H](Nc2ccnc3cc(-c4cccc(C(=O)c5ccccc5)c4)nn23)[C@H](O)[C@@H]1O` (racemic) [Compound I-073, (rac)-((1R,2R,3S,4R)-4-(2-(3-benzoylphenyl)pyrazolo[1,5-a]pyrimidin-7-ylamino)-2,3-dihydroxycyclopentyl)methyl rel-sulfamate] yielded a pIC50 of 7.00 to 8.00. `NS(=O)(=O)OC[C@H]1C[C@@H](Nc2ccnc3cc(-c4c[nH]c5cc(Cl)ccc45)nn23)[C@H](O)[C@@H]1O` (racemic) [Compound I-055, (rac)-[(1R,2R,3S,4R)-4-{[2-(6-chloro-1H-indol-3-yl)pyrazolo[1,5-a]pyrimidin-7-yl]amino}-2,3-dihydroxycyclopentyl]methyl rel-sulfamate] gave a pIC50 greater than 8.00. For `CCCOC(C)(C)c1cccc(-c2cc3nccc(N[C@@H]4C[C@H](COS(N)(=O)=O)[C@@H](O)[C@H]4O)n3n2)c1` (racemic) [Compound I-090, (rac)-((1R,2R,3S,4R)-2,3-dihydroxy-4-(2-(3-(2-propoxypropan-2-yl)phenyl)pyrazolo[1,5-a]pyrimidin-7-ylamino)cyclopentyl)methyl rel-sulfamate], the pIC50 was greater than 8.00. `COC(=O)c1ccc2c(-c3cc4nccc(N[C@@H]5C[C@H](COS(N)(=O)=O)[C@@H](O)[C@H]5O)n4n3)cccc2c1` (relative stereo) [Compound I-096, (rac)-methyl rel-5-[7-({(1R,2S,3R,4R)-2,3-dihydroxy-4-[(sulfamoyloxy)methyl]cyclopentyl}amino)pyrazolo[1,5-a]pyrimidin-2-yl]-2-naphthoate] showed a pIC50 greater than 8.00. Molecule `CC(CO)(CCl)c1cccc(-c2cc3nccc(N[C@@H]4C[C@H](COS(N)(=O)=O)[C@@H](O)[C@H]4O)n3n2)c1` (relative stereo) [Compound I-123, (rac)-{(1R,2R,3S,4R)-4-[(2-{3-[2-chloro-1-(hydroxymethyl)-1-methylethyl]phenyl}pyrazolo[1,5-a]pyrimidin-7-yl)amino]-2,3-dihydroxycyclopentyl}methyl rel-sulfamate] has a pIC50 greater than 8.00. `NS(=O)(=O)OC[C@H]1C[C@@H](Nc2ccnc3cc(-c4c(Cl)cc(Cl)c5ccccc45)nn23)[C@H](O)[C@@H]1O` [Compound I-117, (s.e.)-((1R,2R,3S,4R)-4-(2-(2,4-dichloronaphthalen-1-yl)pyrazolo[1,5-a]pyrimidin-7-ylamino)-2,3-dihydroxycyclopentyl)methyl sulfamate] was tested, and the pIC50 was 7.00 to 8.00.

Same assay, conditions: human UAE
`CN(C)c1ccc(-c2cc3nccc(N[C@@H]4C[C@H](COS(N)(=O)=O)[C@@H](O)[C@H]4O)n3n2)c2ccccc12` [Compound I-107, (s.e.)-((1R,2R,3S,4R)-4-(2-(4-(dimethylamino)naphthalen-1-yl)pyrazolo[1,5-a]pyrimidin-7-ylamino)-2,3-dihydroxycyclopentyl)methyl sulfamate] showed a pIC50 greater than 8.00. `COc1ccc(SC(F)(F)F)cc1-c1cc2nccc(N[C@@H]3C[C@H](COS(N)(=O)=O)[C@@H](O)[C@H]3O)n2n1` [Compound I-120, (s.e.)-((1R,2R,3S,4R)-2,3-dihydroxy-4-(2-(2-methoxy-5-(trifluoromethylthio)-phenyl)pyrazolo[1,5-a]pyrimidin-7-ylamino)cyclopentyl)methyl sulfamate] was tested, and the pIC50 was greater than 8.00.
